Values quoted from earlier work in patent US20180055969A1, “BIPHASIC CERAMIC BONE SUBSTITUTE” (BONE SUPPORT AB, priority 2015, published 2018).

System: bone resorption
Settings: for potency compared with etidronate: times as potent as etidronate; for potency relative to etidronate: value in parenthesis, etidronate as reference

Row | Compound | potency compared with etidronate | potency relative to etidronate
1 | O=P(O)(O)C(Cl)(Cl)P(=O)(O)O [Clodronate, clodronate] | 10 times | 
2 | CCCCCN(C)CCC(O)(P(=O)(O)O)P(=O)(O)O [ibandronate] |  | 1000
3 | CN(C)CCC(O)(P(=O)(O)O)P(=O)(O)O [olpadronate] |  | 500
4 | NCCC(O)(P(=O)(O)O)P(=O)(O)O [pamidronate] |  | 100
5 | O=P(O)(O)C(O)(Cn1ccnc1)P(=O)(O)O [zoledronate] | up to 10.000 times | 10000
6 | NCCCC(O)(P(=O)(O)O)P(=O)(O)O [alendronate] | 10-100 times | 500
7 | NCCCCCC(O)(P(=O)(O)O)P(=O)(O)O [neridronate] |  | 100
8 | O=P(O)(O)C(Sc1ccc(Cl)cc1)P(=O)(O)O [tiludronate] | 10 times | 
9 | O=P(O)(O)C(O)(Cc1cccnc1)P(=O)(O)O [risedronate] |  | 2000
